# Measured values published in paper PMC11173508, “Pharmacokinetics and Tissue Distribution of Itampolin A following Intragastric and Intravenous Administration in Rats Using Ultra-High-Performance Liquid Chromatography–Tandem Mass Spectrometry” (Molecules, 2024).
# Assay: Stability of itampolin A in biological samples under different storage conditions
# Assay type: physicochemical, rat
# Details: for Stability, Autosampler 4 °C for 24 h / Stability, Long-Term (at −80 °C for 30 Days) / Stability, Short-Term (at Room Temperature for 4 h) / Stability, Three Freeze–Thaw Cycles: n = 5, in %
# Method: The stability of itampolin A was investigated by analyzing five replicates of the samples at three QC levels (3, 40, and 1280 ng/mL) under different storage conditions: (1) 4 h exposure at room temperature, (2) 24 h storage in the autosampler at 4 °C, (3) three freeze–thaw cycles, and (4) storage at −80 °C for 30 days. The samples were considered stable if the average percentage concentration deviation was within 15% of the actual value.
smiles,measurement,setting,value
"COc1c(Br)cc(C[C@H](NC(=O)Cc2ccc(OCCCNC(C)=O)cc2)C(=O)NCCc2cc(Br)c(O)c(Br)c2)cc1Br [itampolin A, Itampolin A]","Stability, Autosampler 4 °C for 24 h","brain, spiked 3 ng/mL",98.3 ± 5.8
same,"Stability, Long-Term (at −80 °C for 30 Days)","brain, spiked 3 ng/mL",94.3 ± 8.7
same,"Stability, Short-Term (at Room Temperature for 4 h)","brain, spiked 3 ng/mL",112.6 ± 3.9
same,"Stability, Three Freeze–Thaw Cycles","brain, spiked 3 ng/mL",99.5 ± 6.3
same,"Stability, Autosampler 4 °C for 24 h","brain, spiked 40 ng/mL",108.0 ± 4.0
same,"Stability, Long-Term (at −80 °C for 30 Days)","brain, spiked 40 ng/mL",95.0 ± 2.9
same,"Stability, Short-Term (at Room Temperature for 4 h)","brain, spiked 40 ng/mL",99.9 ± 10.9
same,"Stability, Three Freeze–Thaw Cycles","brain, spiked 40 ng/mL",93.7 ± 7.8
same,"Stability, Autosampler 4 °C for 24 h","brain, spiked 1280 ng/mL",96.8 ± 8.3
same,"Stability, Long-Term (at −80 °C for 30 Days)","brain, spiked 1280 ng/mL",94.6 ± 5.7
same,"Stability, Short-Term (at Room Temperature for 4 h)","brain, spiked 1280 ng/mL",99.7 ± 2.9
same,"Stability, Three Freeze–Thaw Cycles","brain, spiked 1280 ng/mL",104.3 ± 2.6
same,"Stability, Autosampler 4 °C for 24 h","heart, spiked 3 ng/mL",87.2 ± 7.2
same,"Stability, Long-Term (at −80 °C for 30 Days)","heart, spiked 3 ng/mL",103.3 ± 6.8
same,"Stability, Short-Term (at Room Temperature for 4 h)","heart, spiked 3 ng/mL",97.7 ± 3.6
same,"Stability, Three Freeze–Thaw Cycles","heart, spiked 3 ng/mL",94.3 ± 6.5
same,"Stability, Autosampler 4 °C for 24 h","heart, spiked 40 ng/mL",103.9 ± 3.5
same,"Stability, Long-Term (at −80 °C for 30 Days)","heart, spiked 40 ng/mL",97.4 ± 5.3
same,"Stability, Short-Term (at Room Temperature for 4 h)","heart, spiked 40 ng/mL",100.3 ± 2.6
same,"Stability, Three Freeze–Thaw Cycles","heart, spiked 40 ng/mL",108.3 ± 9.7
same,"Stability, Autosampler 4 °C for 24 h","heart, spiked 1280 ng/mL",94.0 ± 7.3
same,"Stability, Long-Term (at −80 °C for 30 Days)","heart, spiked 1280 ng/mL",95.3 ± 5.4
same,"Stability, Short-Term (at Room Temperature for 4 h)","heart, spiked 1280 ng/mL",89.3 ± 5.3
same,"Stability, Three Freeze–Thaw Cycles","heart, spiked 1280 ng/mL",98.9 ± 4.9
same,"Stability, Autosampler 4 °C for 24 h","intestine, spiked 3 ng/mL",99.5 ± 5.3
same,"Stability, Long-Term (at −80 °C for 30 Days)","intestine, spiked 3 ng/mL",96.3 ± 7.9
same,"Stability, Short-Term (at Room Temperature for 4 h)","intestine, spiked 3 ng/mL",100.1 ± 6.1
same,"Stability, Three Freeze–Thaw Cycles","intestine, spiked 3 ng/mL",108.7 ± 2.9
same,"Stability, Autosampler 4 °C for 24 h","intestine, spiked 40 ng/mL",106.4 ± 8.9
same,"Stability, Long-Term (at −80 °C for 30 Days)","intestine, spiked 40 ng/mL",85.9 ± 7.4
same,"Stability, Short-Term (at Room Temperature for 4 h)","intestine, spiked 40 ng/mL",101.3 ± 2.3
same,"Stability, Three Freeze–Thaw Cycles","intestine, spiked 40 ng/mL",98.3 ± 5.0
same,"Stability, Autosampler 4 °C for 24 h","intestine, spiked 1280 ng/mL",102.3 ± 4.1
same,"Stability, Long-Term (at −80 °C for 30 Days)","intestine, spiked 1280 ng/mL",89.0 ± 7.9
same,"Stability, Short-Term (at Room Temperature for 4 h)","intestine, spiked 1280 ng/mL",99.7 ± 3.3
same,"Stability, Three Freeze–Thaw Cycles","intestine, spiked 1280 ng/mL",107.5 ± 8.2
same,"Stability, Autosampler 4 °C for 24 h","kidney, spiked 3 ng/mL",93.0 ± 8.9
same,"Stability, Long-Term (at −80 °C for 30 Days)","kidney, spiked 3 ng/mL",89.1 ± 7.1
same,"Stability, Short-Term (at Room Temperature for 4 h)","kidney, spiked 3 ng/mL",98.6 ± 4.0
same,"Stability, Three Freeze–Thaw Cycles","kidney, spiked 3 ng/mL",97.1 ± 6.7
same,"Stability, Autosampler 4 °C for 24 h","kidney, spiked 40 ng/mL",100.7 ± 7.6
same,"Stability, Long-Term (at −80 °C for 30 Days)","kidney, spiked 40 ng/mL",97.3 ± 8.5
same,"Stability, Short-Term (at Room Temperature for 4 h)","kidney, spiked 40 ng/mL",106.8 ± 7.3
same,"Stability, Three Freeze–Thaw Cycles","kidney, spiked 40 ng/mL",98.4 ± 5.0
same,"Stability, Autosampler 4 °C for 24 h","kidney, spiked 1280 ng/mL",92.7 ± 4.2
same,"Stability, Long-Term (at −80 °C for 30 Days)","kidney, spiked 1280 ng/mL",110.4 ± 5.9
same,"Stability, Short-Term (at Room Temperature for 4 h)","kidney, spiked 1280 ng/mL",99.8 ± 8.1
same,"Stability, Three Freeze–Thaw Cycles","kidney, spiked 1280 ng/mL",98.8 ± 3.6
same,"Stability, Autosampler 4 °C for 24 h","liver, spiked 3 ng/mL",96.3 ± 8.2
same,"Stability, Long-Term (at −80 °C for 30 Days)","liver, spiked 3 ng/mL",93.7 ± 5.1
same,"Stability, Short-Term (at Room Temperature for 4 h)","liver, spiked 3 ng/mL",98.2 ± 7.5
same,"Stability, Three Freeze–Thaw Cycles","liver, spiked 3 ng/mL",103.3 ± 4.7
same,"Stability, Autosampler 4 °C for 24 h","liver, spiked 40 ng/mL",98.8 ± 4.8
same,"Stability, Long-Term (at −80 °C for 30 Days)","liver, spiked 40 ng/mL",87.1 ± 6.8
same,"Stability, Short-Term (at Room Temperature for 4 h)","liver, spiked 40 ng/mL",93.5 ± 2.5
same,"Stability, Three Freeze–Thaw Cycles","liver, spiked 40 ng/mL",96.4 ± 8.1
same,"Stability, Autosampler 4 °C for 24 h","liver, spiked 1280 ng/mL",113.6 ± 4.2
same,"Stability, Long-Term (at −80 °C for 30 Days)","liver, spiked 1280 ng/mL",97.9 ± 5.2
same,"Stability, Short-Term (at Room Temperature for 4 h)","liver, spiked 1280 ng/mL",102.9 ± 6.5
same,"Stability, Three Freeze–Thaw Cycles","liver, spiked 1280 ng/mL",95.1 ± 9.2
same,"Stability, Autosampler 4 °C for 24 h","lung, spiked 3 ng/mL",102.5 ± 9.3
same,"Stability, Long-Term (at −80 °C for 30 Days)","lung, spiked 3 ng/mL",95.6 ± 4.9
same,"Stability, Short-Term (at Room Temperature for 4 h)","lung, spiked 3 ng/mL",108.7 ± 5.1
same,"Stability, Three Freeze–Thaw Cycles","lung, spiked 3 ng/mL",95.9 ± 7.2
same,"Stability, Autosampler 4 °C for 24 h","lung, spiked 40 ng/mL",99.3 ± 6.9
same,"Stability, Long-Term (at −80 °C for 30 Days)","lung, spiked 40 ng/mL",106.7 ± 8.8
same,"Stability, Short-Term (at Room Temperature for 4 h)","lung, spiked 40 ng/mL",103.1 ± 3.3
same,"Stability, Three Freeze–Thaw Cycles","lung, spiked 40 ng/mL",86.0 ± 4.2
same,"Stability, Autosampler 4 °C for 24 h","lung, spiked 1280 ng/mL",98.5 ±3.1
same,"Stability, Long-Term (at −80 °C for 30 Days)","lung, spiked 1280 ng/mL",96.4 ± 4.8
same,"Stability, Short-Term (at Room Temperature for 4 h)","lung, spiked 1280 ng/mL",101.2 ± 2.9
same,"Stability, Three Freeze–Thaw Cycles","lung, spiked 1280 ng/mL",91.4 ± 5.9
same,"Stability, Autosampler 4 °C for 24 h","plasma, spiked 3 ng/mL",97.3 ± 5.5
same,"Stability, Long-Term (at −80 °C for 30 Days)","plasma, spiked 3 ng/mL",90.5 ± 6.7
same,"Stability, Short-Term (at Room Temperature for 4 h)","plasma, spiked 3 ng/mL",103.9 ± 8.0
same,"Stability, Three Freeze–Thaw Cycles","plasma, spiked 3 ng/mL",106.8 ± 8.8
same,"Stability, Autosampler 4 °C for 24 h","plasma, spiked 40 ng/mL",96.6 ± 6.3
same,"Stability, Long-Term (at −80 °C for 30 Days)","plasma, spiked 40 ng/mL",93.6 ± 8.2
same,"Stability, Short-Term (at Room Temperature for 4 h)","plasma, spiked 40 ng/mL",100.1 ± 4.1
same,"Stability, Three Freeze–Thaw Cycles","plasma, spiked 40 ng/mL",95.3 ± 8.3
same,"Stability, Autosampler 4 °C for 24 h","plasma, spiked 1280 ng/mL",98.3 ± 2.9
same,"Stability, Long-Term (at −80 °C for 30 Days)","plasma, spiked 1280 ng/mL",95.8 ± 8.4
same,"Stability, Short-Term (at Room Temperature for 4 h)","plasma, spiked 1280 ng/mL",97.8 ± 4.1
same,"Stability, Three Freeze–Thaw Cycles","plasma, spiked 1280 ng/mL",110.6 ± 5.6
same,stability during processing procedures,"room temperature for 4 h and autosampler for 24 h, deviation in concentration within ±15% from nominal values",stable
same,"Stability, Autosampler 4 °C for 24 h","spleen, spiked 3 ng/mL",103.8 ± 8.5
same,"Stability, Long-Term (at −80 °C for 30 Days)","spleen, spiked 3 ng/mL",89.5 ± 8.9
same,"Stability, Short-Term (at Room Temperature for 4 h)","spleen, spiked 3 ng/mL",96.2 ± 2.2
same,"Stability, Three Freeze–Thaw Cycles","spleen, spiked 3 ng/mL",98.4 ± 6.6
same,"Stability, Autosampler 4 °C for 24 h","spleen, spiked 40 ng/mL",105.8 ± 3.6
same,"Stability, Long-Term (at −80 °C for 30 Days)","spleen, spiked 40 ng/mL",102.9 ± 8.7
same,"Stability, Short-Term (at Room Temperature for 4 h)","spleen, spiked 40 ng/mL",100.6 ± 3.8
same,"Stability, Three Freeze–Thaw Cycles","spleen, spiked 40 ng/mL",112.2 ± 6.5
same,"Stability, Autosampler 4 °C for 24 h","spleen, spiked 1280 ng/mL",101.2 ± 4.2
same,"Stability, Long-Term (at −80 °C for 30 Days)","spleen, spiked 1280 ng/mL",104.1 ± 5.2
same,"Stability, Short-Term (at Room Temperature for 4 h)","spleen, spiked 1280 ng/mL",98.4 ± 2.1
same,"Stability, Three Freeze–Thaw Cycles","spleen, spiked 1280 ng/mL",92.4 ± 7.8
same,"Stability, Autosampler 4 °C for 24 h","stomach, spiked 3 ng/mL",87.5 ± 3.3
same,"Stability, Long-Term (at −80 °C for 30 Days)","stomach, spiked 3 ng/mL",92.6 ± 6.5
same,"Stability, Short-Term (at Room Temperature for 4 h)","stomach, spiked 3 ng/mL",100.6 ± 7.6
same,"Stability, Three Freeze–Thaw Cycles","stomach, spiked 3 ng/mL",103.2 ± 4.2
same,"Stability, Autosampler 4 °C for 24 h","stomach, spiked 40 ng/mL",104.8 ± 7.8
same,"Stability, Long-Term (at −80 °C for 30 Days)","stomach, spiked 40 ng/mL",95.6 ± 5.8
same,"Stability, Short-Term (at Room Temperature for 4 h)","stomach, spiked 40 ng/mL",99.0 ± 4.3
same,"Stability, Three Freeze–Thaw Cycles","stomach, spiked 40 ng/mL",114.8 ± 6.6
same,"Stability, Autosampler 4 °C for 24 h","stomach, spiked 1280 ng/mL",98.5 ± 2.6
same,"Stability, Long-Term (at −80 °C for 30 Days)","stomach, spiked 1280 ng/mL",94.1 ± 6.1
same,"Stability, Short-Term (at Room Temperature for 4 h)","stomach, spiked 1280 ng/mL",99.1 ± 4.2
same,"Stability, Three Freeze–Thaw Cycles","stomach, spiked 1280 ng/mL",97.7 ± 4.7
same,effect of storage on quantification,three freeze–thaw cycles and long-term storage (−80 °C for 30 days),no effect on the quantification
